Read-outs that look alike come from different tables or passages of the source.
How the values were obtained:
NHACs = test: calcium flux assay; type: cell-based, human; details: for Emax: read-out: (A) % Efficacy
In short: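 FLIPR fluorescence (ex 470–495 nm, em 515–575 nm) was read before and after compound dispense at the indicated dose. Chondrocytes (NHACs), 2000 cells/well, had been dye-loaded 24 h after plating with Calcium 5 in HBSS/HEPES plus 5 mM probenecid, 1 h, room temperature.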

C3H10T1/2 cell line = test: alkaline phosphatase assay in C3H10T1/2; type: cell-based; details: alkaline phosphatase assay in C3H10T1/2, 6 days; for Emax: read-out: (D) % Efficacy; for IC50: read-out: (D) IC50
Method: To initiate differentiation in C3H10T1/2, Clone 8 (ATCC cat #CCL-226), 4,000 cells were plated/well in 384 Perkin Elmer CellCarrier Ultra plate in DMEM/High glucose (HyClone cat #SH30022.01) containing 10% FBS and 1× Antibiotic/Antimycotic (HyClone cat #SV30079.01). After 24 hours the test compound was then added to each well at the indicated dose. The cultures were grown at 37° C. for 6 days.
To detect the presence of hypertrophic cells, C3H10T1/2 were fixed with 4% paraformaldehyde and Hoeschst dye for 20 minutes, rinsed in PBS, then stained with Fast Blue RR Salt with Naphthol AS-MX Phosphate Alkaline Solution.
The ALP staining was imaged by fluoresecent microscopy, using the 561 wavelength, and/or quantified by high content imagining with the ImageXpress Micro Confocal (Molecular Devices, Sunnyvale, CA). Data analyses were performed with the customized multiwavelength cell-scoring application looking at the number of ALP positive cells per well.

[1] = test system: normal human articular chondrocytes (NHACs); test: alkaline phosphatase assay in NHAC; type: cell-based; details: 10 days
Method: To initiate differentiation in NHACs, 16,000 cells were plated/well in Costar 96 well plate in CGM media (Lonza). After 24 hours the MSCGM was removed and replaced with DMEM containing 1% FBS. The test compound was then added to each well at the indicated dose. The cultures were grown at 37° C. for 10 days.
To detect the presence of hypertrophic cells, NHACs were fixed with 10% formalin and Hoeschst dye for 20 minutes, rinsed in PBS, then stained with Fast Blue RR Salt with Naphthol AS-MX Phosphate Alkaline Solution.
The total intensity of staining was imaged by fluoresecent microscopy, using the 651 wavelength, and/or quantified by high content imagining with the ImageXpress Micro (Molecular Devices, Sunnyvale, CA). Data analyses were performed with the customized multiwavelength cell-scoring application.

[2] = Mus musculus, C3H 10T1/2, 144 h

## Cc1cc([C@H]2[C@H]3O[C@H](C[C@H]3N(C)C)[C@@H]2C(=O)Nc2ccc(Cl)c(Cl)c2)ccn1 [Example 166, (1R,2R,3S,4R,5R)—N-(3,4-dichlorophenyl)-5-(dimethylamino)-3-(2-methylpyridin-4-yl)-7-oxabicyclo[2.2.1]heptane-2-carboxamide]
NHACs; Homo sapiens
  EC50: 24 µM
  Emax: 68%
C3H10T1/2 cell line; [2]
  Emax: 0%
  IC50: > 20 µM

## Cc1cc([C@@H]2[C@@H]3O[C@@H](C[C@H]3O)[C@H]2C(=O)Nc2cnc(Cl)c(Cl)c2)ccn1 [Example 84, (1S,2S,3R,4S,5R)-N-(5,6-dichloropyridin-3-yl)-5-hydroxy-3-(2-methylpyridin-4-yl)-7-oxabicyclo[2.2.1]heptane-2-carboxamide]
NHACs; Homo sapiens
  EC50: > 50 µM
  Emax: 61%
C3H10T1/2 cell line; [2]
  Emax: 31%
  IC50: > 20 µM

## O=C(Nc1ccc(Cl)c(Cl)c1)[C@@H]1[C@@H]2O[C@@H]([C@H]3C[C@H]32)[C@@H]1c1cncnc1 [Example 27]
NHACs
  (A) % Efficacy: 120%
  EC50: 13 µM
C3H10T1/2 cell line
  (D) % Efficacy: 48%
  IC50: > 20 µM
[1]
  (C) % Efficacy: 71%
[1]; read-out: (C) IC50
  IC50: 34 µM

## O=C(Nc1ccc(Cl)c(Cl)c1)[C@H]1[C@@H](c2ccnc(C(F)(F)F)c2)[C@H]2O[C@@H]1C[C@@H]2O (single isomer, unassigned) [Example 54a]
NHACs; Homo sapiens
  EC50: 3.5 µM
  Emax: 45%
C3H10T1/2 cell line; [2]
  Emax: 35%
  IC50: > 20 µM

## Cc1ncc([C@H]2[C@H]3O[C@H](C[C@@H]3O)[C@@H]2C(=O)Nc2ccc(Cl)c(Cl)c2)cn1 [Example 148, (1R,2R,3S,4R,5S)—N-(3,4-dichlorophenyl)-5-hydroxy-3-(2-methylpyrimidin-5-yl)-7-oxabicyclo[2.2.1]heptane-2-carboxamide]
NHACs; Homo sapiens
  EC50: 7.8 µM
  Emax: 51%
C3H10T1/2 cell line; [2]
  Emax: 58%
  IC50: 18 µM

## O=C(Nc1ccc(Cl)c(Cl)c1)[C@@H]1[C@H](c2ccnc(C(F)(F)F)c2)[C@@H]2O[C@H]1C[C@H]2O (single isomer, unassigned) [Example 54b]
NHACs; Homo sapiens
  EC50: > 50 µM
  Emax: 16%
C3H10T1/2 cell line; [2]
  Emax: 46%
  IC50: > 20 µM

## O=C(Nc1ccc(Cl)c(Cl)c1)[C@H]1[C@@H]2O[C@@H]([C@H]3C[C@H]32)[C@@H]1c1cccc(C(F)(F)F)n1 [Example 120, (1S,2S,4R,5R,6R,7S)—N-(3,4-dichlorophenyl)-7-(6-(trifluoromethyl)pyridin-2-yl)-8-oxatricyclo[3.2.1.0^2,4]octane-6-carboxamide]
NHACs; Homo sapiens
  EC50: 20 µM
  Emax: 102%
C3H10T1/2 cell line; [2]
  Emax: 119%
  IC50: 4.4 µM

## Cc1cc([C@H]2[C@H]3O[C@H]([C@@H]4C[C@@H]43)[C@@H]2C(=O)Nc2cccc(C(F)(F)F)c2)ccn1 (single isomer, unassigned) [Example 121a]
NHACs; Homo sapiens
  EC50: 2.7 µM
  Emax: 231%
C3H10T1/2 cell line; [2]
  Emax: 80%
  IC50: 4.5 µM

## O=C(Nc1ccc(Cl)c(Cl)c1)[C@@H]1[C@@H](c2cnc(C(F)(F)F)nc2)[C@H]2O[C@@H]1C[C@@H]2O [Example 154, (1R,2R,3S,4R,5S)—N-(3,4-dichlorophenyl)-5-hydroxy-3-(2-(trifluoromethyl)pyrimidin-5-yl)-7-oxabicyclo[2.2.1]heptane-2-carboxamide]
NHACs; Homo sapiens
  EC50: 26 µM
  Emax: 236%
C3H10T1/2 cell line; [2]
  Emax: 75%
  IC50: 4 µM

## Cc1cc([C@H]2[C@H]3O[C@H]([C@@H]4C[C@@H]43)[C@@H]2C(=O)Nc2ncc(C)s2)ccn1 [Example 70, (1S,2S,4R,5R,6R,7S)-7-(2-methylpyridin-4-yl)-N-(5-methylthiazol-2-yl)-8-oxatricyclo[3.2.1.0^2,4]octane-6-carboxamide]
NHACs; Homo sapiens
  EC50: > 50 µM
  Emax: 25%
C3H10T1/2 cell line; [2]
  Emax: 1%
  IC50: > 20 µM

## Cc1ccc([C@H]2[C@H]3O[C@H]([C@@H]4C[C@@H]43)[C@@H]2C(=O)Nc2cnc(Cl)c(Cl)c2)cn1 [Example 74, (1S,2S,4R,5R,6R,7S)—N-(5,6-dichloropyridin-3-yl)-7-(6-methylpyridin-3-yl)-8-oxatricyclo[3.2.1.0^2,4]octane-6-carboxamide]
NHACs; Homo sapiens
  EC50: 7.7 µM
  Emax: 90%
C3H10T1/2 cell line; [2]
  Emax: 83%
  IC50: > 20 µM

## O=C(Nc1cnc(Cl)c(Cl)c1)[C@H]1[C@H](c2ccnc(F)c2)[C@@H]2O[C@H]1C[C@H]2O (single isomer, unassigned) [Example 90b]
NHACs; Homo sapiens
  EC50: > 50 µM
  Emax: 44%
C3H10T1/2 cell line; [2]
  Emax: 45%
  IC50: > 20 µM

## O=C(Nc1cnc(Cl)c(Cl)c1)[C@H]1[C@@H]2O[C@@H]([C@H]3C[C@H]32)[C@@H]1c1cncnc1 [Example 75, (1S,2S,4R,5R,6R,7S)—N-(5,6-dichloropyridin-3-yl)-7-(pyrimidin-5-yl)-8-oxatricyclo[3.2.1.0^2,4]octane-6-carboxamide]
NHACs; Homo sapiens
  EC50: 4.4 µM
  Emax: 73%
C3H10T1/2 cell line; [2]
  Emax: 45%
  IC50: > 20 µM

## Cc1cc([C@@H]2[C@@H](C(=O)Nc3ccc(Cl)c(Cl)c3)[C@@H]3O[C@H]2C[C@H]3O)ccn1 (single isomer, unassigned) [Example 77b]
NHACs; Homo sapiens
  EC50: 20 µM
  Emax: 157%
C3H10T1/2 cell line; [2]
  Emax: 47%
  IC50: > 20 µM

## Cc1cc([C@@H]2[C@@H]3O[C@@H](C[C@@H]3F)[C@H]2C(=O)Nc2ccc(Cl)c(Cl)c2)ccn1 (single isomer, unassigned) [Example 94]
NHACs; Homo sapiens
  EC50: 18 µM
  Emax: 157%
C3H10T1/2 cell line; [2]
  Emax: 0%
  IC50: > 20 µM

## COc1cc([C@@H]2[C@@H]3O[C@@H](C[C@H]3O)[C@H]2C(=O)Nc2ccc(Cl)c(Cl)c2)ccn1 (single isomer, unassigned) [Example 139b]
NHACs; Homo sapiens
  EC50: 26 µM
  Emax: 141%
C3H10T1/2 cell line; [2]
  Emax: 82%
  IC50: 7.7 µM

## COc1ccc(NC(=O)[C@H]2[C@@H]3O[C@@H]([C@H]4C[C@H]43)[C@@H]2c2cccc(C(F)(F)F)n2)cn1 [Example 128, (1S,2S,4R,5R,6R,7S)—N-(6-methoxypyridin-3-yl)-7-(6-(trifluoromethyl)pyridin-2-yl)-8-oxatricyclo[3.2.1.0^2,4]octane-6-carboxamide]
NHACs; Homo sapiens
  EC50: > 50 µM
  Emax: 27%
C3H10T1/2 cell line; [2]
  Emax: 39%
  IC50: > 20 µM

## Cc1cc([C@@H]2[C@@H]3O[C@@H](C[C@H]3O)[C@H]2C(=O)Nc2ccc(Cl)c(Cl)c2)ccn1 [Example 77c, (1S,2S,3R,4S,5R)-N-(3,4-dichlorophenyl)-5-hydroxy-3-(2-methylpyridin-4-yl)-7-oxabicyclo[2.2.1]heptane-2-carboxamide]
NHACs; Homo sapiens
  EC50: 13 µM
  Emax: 72%
C3H10T1/2 cell line; [2]
  Emax: 72%
  IC50: 3.9 µM

## O=C(Nc1ccc(Cl)c(Cl)c1)[C@H]1[C@@H](c2ccnc(C(F)(F)F)c2)[C@H]2O[C@@H]1C[C@@H]2O (racemic) [Example 54, rac-(1R,2S,3S,4R,5S)—N-(3,4-dichlorophenyl)-5-hydroxy-3-(2-(trifluoromethyl)pyridin-4-yl)-7-oxabicyclo[2.2.1]heptane-2-carboxamide]
NHACs; Homo sapiens
  EC50: > 50 µM
  Emax: 22%
C3H10T1/2 cell line; [2]
  Emax: 35%
  IC50: > 20 µM

## COc1cc([C@H]2[C@H]3O[C@H](C[C@@H]3F)[C@@H]2C(=O)Nc2ccc(Cl)c(Cl)c2)ccn1 [Example 103, (1R,2R,3S,4R,5S)—N-(3,4-dichlorophenyl)-5-fluoro-3-(2-methoxypyridin-4-yl)-7-oxabicyclo[2.2.1]heptane-2-carboxamide]
NHACs; Homo sapiens
  EC50: 24 µM
  Emax: 153%
C3H10T1/2 cell line; [2]
  Emax: 79%
  IC50: 10 µM

## Nc1cc([C@H]2[C@H]3O[C@H](C[C@@H]3O)[C@@H]2C(=O)Nc2ccc(Cl)c(Cl)c2)ccn1 [Example 149, (1R,2R,3S,4R,5S)-3-(2-aminopyridin-4-yl)-N-(3,4-dichlorophenyl)-5-hydroxy-7-oxabicyclo[2.2.1]heptane-2-carboxamide]
NHACs; Homo sapiens
  EC50: 26 µM
  Emax: 112%
C3H10T1/2 cell line; [2]
  Emax: 58%
  IC50: 8.3 µM

## Cc1cc([C@H]2[C@H]3O[C@H]([C@@H]4C[C@@H]43)[C@@H]2C(=O)Nc2cccc(OC(F)(F)F)c2)ccn1 [Example 69, (1S,2S,4R,5R,6R,7S)-7-(2-methylpyridin-4-yl)-N-(3-(trifluoromethoxy)phenyl)-8-oxatricyclo[3.2.1.0^2,4]octane-6-carboxamide]
NHACs; Homo sapiens
  EC50: 21 µM
  Emax: 180%
C3H10T1/2 cell line; [2]
  Emax: 63%
  IC50: > 20 µM

## Cc1cc([C@H]2[C@H]3O[C@H](C[C@@H]3F)[C@@H]2C(=O)Nc2ccc(Cl)c(Cl)c2)ccn1 [Example 105, (1R,2R,3S,4R,5S)—N-(3,4-dichlorophenyl)-5-fluoro-3-(2-methylpyridin-4-yl)-7-oxabicyclo[2.2.1]heptane-2-carboxamide]
NHACs; Homo sapiens
  EC50: 8.2 µM
  Emax: 106%
C3H10T1/2 cell line; [2]
  Emax: 68%
  IC50: 1.7 µM
